test system: H1N1 (influenza A/New Caledonia/20/99); experiment: microbe, parasite or virus in culture; type: cell-based; conditions: H1N1, A549, 48 h, read-out: IC50 (antiviral effect, Influenza replication)

SMILES | IC50 [µM]
COc1ccc(C(=O)Nc2sc3c(c2C(=O)O)CCC(C)(C)C3)cc1OC [Compound #18] | 0.05
CCOC(=O)N1CCC(NC(=S)Nc2cc(Cl)cc(Cl)c2)CC1 [Compound T01001, ethyl-4-(3-(3,5-dichlorophenyl)thioureido)piperidine-1-carboxylate] | 18
CCc1ccc(CCOc2ccc(CC3SC(=O)NC3=O)cc2)nc1 (stereo not drawn) [Pioglitazone] | 38
